This note sets out measurements from patent US11447484B2, “Cyclic compound having dopamine D3 receptor antagonistic effect” (Shionogi & Co., Ltd., priority 2018, dated 2022).

The target in assay [1] is human recombinant D3 receptor (Homo sapiens (Human), UniProt P35462). The assay is described as follows: Test of binding inhibition for dopamine D3 receptor. Conditions: Jump-In HEK cell membranes, 2 nM [3H]-Methylspiperone, 120 min at 25° C.; read-out: hD3_Ki. The protocol:
Test Example 1: Test of Binding Inhibition for Dopamine D3 Receptor
(§1) (Experimental Conditions)
Cell membranes: Jump-In HEK cell membranes expressing human recombinant D3 receptor (4 μg/well)
(§2) Buffer solution: 50 mM Tris-HCl (35409-45, Nacalai Tesque) (pH 7.4) containing 120 mM NaCl (31320-05, Nacalai Tesque), 1 mM MgCl2.6H2O (20909-55, Nacalai Tesque), 5 mM KCl (28514-75, Nacalai Tesque) and 2 mM CaCl2 (067-31, NAKARAI CHEMICALS, LTD.)
Radioligand: (final concentration) 2 nM [^3H]-Methylspiperone ([^3H—N-methyl-]-Methylspiperone, NET-856, 83.8 Ci/mmol, PerkinElmer)
Non-specific ligand: (final concentration) 10 μM Butaclamol [(+)-Butaclamol Hydrochloride, D033, Sigma]
(§3) SPA beads solution: SPA beads [WGA PVT SPA Scintillation Beads, RPNQ0001 (500 mg), RPNQ0060 (2 g), PerkinElmer] (0.2 mg/well)
(§4) Incubation time and temperature: 120 min at 25° C.
(§5) Butaclamol or the compounds of the present invention were weighed and DMSO was added to make a 10 mM solution. This solution was diluted to each concentration.
[^3H]-Methylspiperone was weighed and the buffer solution was added to make a 6 nM solution.
(§6) SPA beads were weighed and stirred in water to make a 50 mg/mL solution. Using this solution, a mixture with the cell membranes was prepared.
(§7) 225 nL of the solutions of the non-specific ligand or the compounds of the present invention at each concentration (in case of vehicle, final concentration 0.3% DMSO) were added in each well of a 384-well white/clear bottom microplate (3706, Corning). Jump-In HEK Cell membranes (final reaction amount: 4 μg protein/well), the SPA beads solution (final reaction amount: 0.2 mg/well) and the buffer solution were mixed and the mixed solution was left still for 1 hour or more at 4° C. Then, 50 μL of the mixture was added to each well of the plate. In addition, 25 μL of 6 nM [^3H]-Methylspiperone (final concentration: 2 nM) was added to each well. The plate was sealed by putting TopSeal-A 96/384 well (6050185, PerkinElmer, Inc.) on the top of the plate, mixed using stirring deaerator (Well Tornado, FK-62, Sakaki-elc.) and incubated for 120 min at 25° C. After incubation, the radioactivity of [^3H]-Methylspiperone which was bonded to D3 receptor was determined by liquid scintillation counter (1450 Microbeta, PerkinElmer) in each well. Non-specific binding was calculated based on the radioactivity of [^3H]-Methylspiperone in the presence of 10 μM non-labeled Butaclamol. The total binding was calculated using the radioactivity of [^3H]-Methylspiperone in the absence of the compounds of the present invention (vehicle). The Ki values were calculated from dose-response curves.
(§8) Binding activities of the compounds of the present invention were calculated from the following Binding Inhibition Rate (%): Inhibition Rate(%)=[1−(c−a)/(b−a)]×100 • a: Average cpm of non-specific binding • b: Average cpm of total binding • c: Cpm in the presence of each test compound

Assay [2] has as its target human recombinant D2 receptor (Homo sapiens (Human), UniProt P14416). As to the kind of experiment: Test of binding inhibition for dopamine D2 receptor. Conditions: Jump-In HEK cell membranes, 1.2 nM [3H]-Methylspiperone, 120 min at 25° C.; read-out: hD2_Ki. The protocol:
Test Example 2: Test of Binding Inhibition for Dopamine D2 Receptor
as §1
Cell membranes: Jump-In HEK cell membranes expressing human recombinant D2 receptor (2 μg/well)
as §2
Radioligand: (final concentration) 1.2 nM [^3H]-Methylspiperone ([^3H—N-methyl-]-Methylspiperone, NET-856, 83.8 Ci/mmol, PerkinElmer)
Non-specific ligand: (final concentration) 10 μM Butaclamol [(+)-Butaclamol Hydrochloride, D033; Sigma]
as §3, §4, §5
[^3H]-Methylspiperone was weighed and the buffer solution was added to make a 3.6 nM solution.
as §6
as §7, with “amount: 2” for “amount: 4”, “SPA bead” for “SPA beads”, “of 3.6” for “of 6”, “concentration: 1.2” for “concentration: 2”, “(6050185, PerkinElmer)” for “(6050185, PerkinElmer, Inc.)”, “to D2” for “to D3”
as §8

human recombinant D3 receptor, sequence (P35462 whole entry): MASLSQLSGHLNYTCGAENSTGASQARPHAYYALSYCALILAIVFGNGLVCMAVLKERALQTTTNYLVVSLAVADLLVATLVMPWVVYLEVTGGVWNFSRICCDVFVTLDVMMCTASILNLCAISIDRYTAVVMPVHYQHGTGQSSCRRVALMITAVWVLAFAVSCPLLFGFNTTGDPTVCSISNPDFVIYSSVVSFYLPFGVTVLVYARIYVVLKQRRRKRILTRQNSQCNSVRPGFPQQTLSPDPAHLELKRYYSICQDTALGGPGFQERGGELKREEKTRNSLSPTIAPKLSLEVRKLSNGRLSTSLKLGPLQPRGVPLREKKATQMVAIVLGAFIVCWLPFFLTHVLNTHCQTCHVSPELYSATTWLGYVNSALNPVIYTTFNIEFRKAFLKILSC
human recombinant D2 receptor, sequence (P14416 whole entry): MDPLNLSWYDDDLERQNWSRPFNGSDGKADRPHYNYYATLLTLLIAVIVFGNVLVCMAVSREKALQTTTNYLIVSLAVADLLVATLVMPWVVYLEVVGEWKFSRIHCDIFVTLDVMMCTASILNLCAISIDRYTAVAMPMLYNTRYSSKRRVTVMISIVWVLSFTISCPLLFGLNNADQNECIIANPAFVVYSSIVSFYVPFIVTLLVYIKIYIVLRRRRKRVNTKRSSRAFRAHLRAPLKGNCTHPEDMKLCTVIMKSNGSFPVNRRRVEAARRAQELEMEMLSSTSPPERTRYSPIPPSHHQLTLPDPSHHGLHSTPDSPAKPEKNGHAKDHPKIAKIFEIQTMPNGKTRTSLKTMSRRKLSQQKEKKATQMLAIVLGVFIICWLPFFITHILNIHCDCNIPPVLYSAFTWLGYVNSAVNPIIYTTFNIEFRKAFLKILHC

Consider `CC(=O)c1conc1C1=CCN(CC[C@H]2CC[C@H](NC(=O)c3cccc4nn(C)cc34)CC2)CC1` [Compound I-023], for which the Ki turned out to be 0.69 nM in assay [1] and 1700 nM in assay [2]. Consider `CC(F)c1cc(C23CC2CN(CC[C@H]2CC[C@H](NC(=O)c4cccc5nn(C)cc45)CC2)C3)no1` (some centres unmarked) [Compound I-033], for which the Ki in assay [1] came out at 0.77 nM. On to `Cn1cc2c(C(=O)N[C@H]3CC[C@H](CCN4CCN(c5nocc5C(C)(F)F)CC4)CC3)cccc2n1` [Compound I-017], for which the Ki in assay [1] was found to be 0.21 nM; in assay [2] it was 52 nM. The matching figures for `O=C(N[C@H]1CC[C@H](CCN2CCC(c3nccn3-c3ccccn3)CC2)CC1)c1cccc2ncccc12` [Compound I-001]: 3.3 nM and over 1700 nM.

For `Cc1cc(CC(=O)N[C@H]2CC[C@H](CCN3CCC(c4nocc4C(C)(F)F)CC3)CC2)on1` [Compound I-008], the values for the Ki in assay [1] and in assay [2] were 0.69 nM and 350 nM, respectively. Taken in the same sequence, the figures for `CCc1cc([C@]23C[C@H]2CN(CC[C@H]2CC[C@H](NC(=O)COc4cnc(C)nc4)CC2)C3)no1` [Compound I-049] were 0.44 nM and 830 nM. For `O=C(N[C@H]1CC[C@H](CCN2CCC(c3nocc3C3CC3)CC2)CC1)c1cccc2ncccc12` [Compound I-004], the figures for the Ki in assay [1] and in assay [2] were 0.6 nM and 160 nM, respectively. Taken in the same sequence, the figures for `Cn1cc2c(C(=O)N[C@H]3CC[C@H](CCN4CCC5(c6nocc6C(C)(F)F)CC5C4)CC3)cccc2n1` (some centres unmarked) [Compound I-021] were 4.8 nM and 1700 nM. Taken in the same sequence, the figures for `Cn1cc2c(C(=O)N[C@H]3CC[C@H](CCN4CCC5CC5(c5cc(C(C)(F)F)on5)C4)CC3)cccc2n1` (some centres unmarked) [Compound I-025] were 2.4 nM and 1200 nM.

Turning to `Cc1ncc(CC(=O)N[C@H]2CC[C@H](CCN3CCC(c4nocc4C(C)(F)F)CC3)CC2)s1` [Compound I-010], the Ki in assay [1] is 0.65 nM; in assay [2] it was 230 nM. The matching figures for `O=C(N[C@H]1CC[C@H](CCN2CCC(n3nccc3-c3ccccc3)CC2)CC1)c1cccc2ncccc12` [Compound I-007]: 2.7 nM and over 1800 nM. For `CCc1cc([C@]23C[C@H]2CN(CC[C@H]2CC[C@H](NC(=O)Cc4noc(C)n4)CC2)C3)no1` [Compound I-058], the Ki in assay [1] was 1.3 nM; in assay [2] it was 790 nM. Taken in the same sequence, the figures for `Cc1ncc(CC(=O)N[C@H]2CC[C@H](CCN3CCN(c4nocc4C(C)(F)F)CC3)CC2)s1` [Compound I-014] were 0.2 nM and 88 nM.

With `Cn1ncc(CC(=O)N[C@H]2CC[C@H](CCN3C[C@@H]4C[C@]4(c4cc(C5CC5)on4)C3)CC2)n1` [II-5], the Ki in assay [1] stood at 0.71 nM; in assay [2], 860 nM.

Regarding `CCc1cc([C@]23C[C@H]2CN(CC[C@H]2CC[C@H](NC(=O)c4cccc5nn(C)cc45)CC2)C3)no1` [Compound I-037], the Ki in assay [1] was 0.7 nM; in assay [2], 290 nM. Consider `Cn1cc2c(C(=O)N[C@H]3CC[C@H](CCN4CCC(c5nocc5C(C)(F)F)CC4)CC3)cccc2n1` [Compound I-022], for which the values for the Ki in assay [1] and in assay [2] were 0.11 nM and 170 nM, respectively. The matching figures for `Cc1cnc(CC(=O)N[C@H]2CC[C@H](CCN3C[C@@H]4C[C@]4(c4cc(C(C)(F)F)on4)C3)CC2)o1` [Compound I-040]: 0.56 nM and 350 nM. The matching figures for `Cc1ncc(OCC(=O)N[C@H]2CC[C@H](CCN3C[C@@H]4C[C@]4(c4cc(C5CC5)on4)C3)CC2)cn1` [II-4]: 0.45 nM and 730 nM.

For `Cn1cc2c(C(=O)N[C@H]3CC[C@](F)(CCN4C[C@@H]5C[C@]5(c5cc(C(C)(F)F)on5)C4)CC3)cccc2n1` [II-1], the results for the Ki in assay [1] and in assay [2] were 0.42 nM and over 2300 nM, respectively. With `Cn1cc2c(C(=O)N[C@H]3CC[C@H](CCN4CC5CC5(c5cc(CF)on5)C4)CC3)cccc2n1` (some centres unmarked) [Compound I-028], the Ki in assay [1] turned out to be 1.9 nM.
